Experimental data taken from PMC6277555, “Short Symmetric-End Antimicrobial Peptides Centered on β-Turn Amino Acids Unit Improve Selectivity and Stability” (Frontiers in Microbiology, 2018).
≈ marks a conversion by molar mass, not a printed value. Residues, ends and D or L forms follow the SMILES beside them.

Tests used:
E. coli ATCC25922 = format: cell-based, Escherichia coli
Method: (§1) The minimal inhibitory concentration (MIC) was determined according to a previously described method ([Chou et al., 2016]). Bacteria were cultured overnight to mid-log phase in MHB at 37°C and then diluted to give final concentrations ranging from 2 × 10^5 to 7 × 10^5 CFU/mL. Then, 50 μL of serial twofold dilutions of the peptides were added to each well in 96-well microtiter plates with a mixed solution containing 0.01% acetic acid and 0.2% bovine serum albumin (BSA, Sigma) was used to dissolve and dilute the peptides. Then, equal amounts of bacterial aliquots were incubated with the above peptide solution for 18-24 h at 37°C. The experiment was performed in triplicate using three replicates for each peptide and each bacterium. The broth was employed as a negative control and the broth with microbial cells was used as a positive control. The lowest concentration of peptide that prevented visible turbidity was defined as the MIC. The condition sensitivity of peptides was tested in an MIC assay in different environments, including salt sensitivity, thermal sensitivity and different pH values similar to our previous method ([[…] et al., 2008]; [Ma et al., 2012]). […] For the heat resistance experiments, the peptides were incubated at 100°C for 30 min and cooled on ice for 10 min. […] The determination methods for these MIC assays were same as described above. To test the effects of serum on the antimicrobial activities of the peptides, human serum was dissolved in MHB to reach final concentrations of 25 and 50%. The determination methods for these MIC assays were same as described above.

S. aureus ATCC 29213 = format: cell-based, Staphylococcus aureus
Method: as §1

S. aureus = test: Time killing assay; format: cell-based, Staphylococcus aureus; settings: mean of three independent assays
Method: The ability of peptides to kill bacterial cells was further investigated by analyzing the fraction of cell survival upon peptide treatment at various exposure times according to a previously described method ([Wiradharma et al., 2012]). Briefly, E. coli and S. aureus were treated at MIC and 2 × MIC concentrations with peptides. At various time periods (0, 5, 10, 30, 60, 90, 120, and 150 min), microbial suspensions were diluted at three different dilutions and plated on MHA plates. Microbial colonies were formed and counted after 24 h of incubation. The results were presented as the mean data from three independent assays.

B. subtilis CMCC 63501 = format: cell-based, Bacillus subtilis
Method: (§2) The minimal inhibitory concentration (MIC) was determined according to a previously described method ([Chou et al., 2016]). Bacteria were cultured overnight to mid-log phase in MHB at 37°C and then diluted to give final concentrations ranging from 2 × 10^5 to 7 × 10^5 CFU/mL. Then, 50 μL of serial twofold dilutions of the peptides were added to each well in 96-well microtiter plates with a mixed solution containing 0.01% acetic acid and 0.2% bovine serum albumin (BSA, Sigma) was used to dissolve and dilute the peptides. Then, equal amounts of bacterial aliquots were incubated with the above peptide solution for 18–24 h at 37°C. The experiment was performed in triplicate using three replicates for each peptide and each bacterium. The broth was employed as a negative control and the broth with microbial cells was used as a positive control. The lowest concentration of peptide that prevented visible turbidity was defined as the MIC.

S. typhimurium ATCC 7731 = format: cell-based, Salmonella entericaserovar Typhimurium
Method: as §2

[1] = test system: S. epidermidis ATCC 12228; format: cell-based, Staphylococcus epidermidis
Method: as §2

S. pullorum C79-13 = format: cell-based, Salmonella pullorum
Method: as §2

[2] = Calcein dye leakage from negatively charged LUVs; settings: POPG/CL (3:1) LUVs, 100 μM lipid, 15 min, all tested concentrations (2 to 64 μM); relative to 0.1% Triton X-100
Method: Prepared calcein-entrapped large unilamellar vesicles (LUVs) were optimized using a previous method ([Stromstedt et al., 2009]). The negatively charged lipids composed of POPG/CL (3:1) were dissolved in chloroform, dried with a stream of nitrogen and resuspended in dye buffer solution (70 mM calcein, 10 mM Tris, 150 mM NaCl, and 0.1 mM EDTA, pH 7.4). The suspension was subjected to 10 freeze-thaw cycles in liquid nitrogen and extruded 21 times through polycarbonate filters (two stacked 100-nm pore size filters) with a LiposoFast extruder (Avestin, Inc., Canada). Untrapped calcein was removed by gel filtration on a Sephadex G-50 column. The lipid concentration was determined by quantitative phosphorus analysis. […] The leakage of calcein from LUVs was monitored by measuring the fluorescence intensity at an excitation wavelength of 490 nm and an emission wavelength of 520 nm on an F-4500 Fluorescence Spectrophotometer (Hitachi, Japan). […] The percentage of the calcein release caused by the AMPs was calculated using the following equation: (3) Dye release (%)=(Fobs−F0)/(F100−F0)×100% where F0 is the fluorescence intensity of the liposomes (background) and Fobs and F100 are the fluorescence intensities achieved by the peptides and Triton X-100, respectively.

CC[C@H](C)[C@H](N)C(=O)N[C@@H](Cc1c[nH]cn1)C(=O)N[C@@H](CCCCN)C(=O)N[C@@H](Cc1ccccc1)C(=O)N[C@@H](Cc1c[nH]c2ccccc12)C(=O)N[C@@H](CCCNC(=N)N)C(=O)N[C@@H](CS)C(=O)N[C@@H](CCCNC(=N)N)C(=O)N[C@@H](CCCNC(=N)N)C(=O)N[C@@H](CCCNC(=N)N)C(=O)N[C@@H](Cc1ccccc1)C(=O)N[C@@H](CS)C(=O)N[C@@H](CCCNC(=N)N)C(=O)N[C@@H](Cc1c[nH]c2ccccc12)C(=O)N[C@@H](Cc1ccccc1)C(=O)N[C@@H](CCCCN)C(=O)N[C@@H](Cc1c[nH]cn1)C(=O)N[C@H](C(N)=O)[C@@H](C)CC [PQ] (H-IHKFWRCRRRFCRWFKHI-NH2; N-terminus assumed)
MIC (E. coli ATCC25922; ATCC25922): 16 µM (≈ 41.2 µg/mL)
MIC, CaCl2 (E. coli ATCC25922; ATCC25922): 32 µM (≈ 82.4 µg/mL)
MIC, Control (E. coli ATCC25922; ATCC25922): 16 µM (≈ 41.2 µg/mL)
MIC, FeCl3 (E. coli ATCC25922; ATCC25922): 8 µM (≈ 20.6 µg/mL)
MIC, Heat (100°C) (E. coli ATCC25922; ATCC25922): 32 µM (≈ 82.4 µg/mL)
MIC, KCl (E. coli ATCC25922; ATCC25922): 4 µM (≈ 10.3 µg/mL)
MIC, MgCl2 (E. coli ATCC25922; ATCC25922): 4 µM (≈ 10.3 µg/mL)
MIC, NH4Cl (E. coli ATCC25922; ATCC25922): 4 µM (≈ 10.3 µg/mL)
MIC, NaCl (E. coli ATCC25922; ATCC25922): 8 µM (≈ 20.6 µg/mL)
MIC, ZnCl2 (E. coli ATCC25922; ATCC25922): 4 µM (≈ 10.3 µg/mL)
MIC, pH 4.0 (E. coli ATCC25922; ATCC25922, pH 4): 8 μM
MIC, pH 6.0 (E. coli ATCC25922; ATCC25922, pH 6): 8 μM
MIC, pH 8.0 (E. coli ATCC25922; ATCC25922, pH 8): 4 μM
MIC, pH 10.0 (E. coli ATCC25922; ATCC25922, pH 10): 4 μM
MIC (S. aureus ATCC 29213; ATCC 29213): 8 µM (≈ 20.6 µg/mL)
MIC, CaCl2 (S. aureus ATCC 29213; ATCC 29213): 8 µM (≈ 20.6 µg/mL)
MIC, Control (S. aureus ATCC 29213; ATCC 29213): 8 µM (≈ 20.6 µg/mL)
MIC, FeCl3 (S. aureus ATCC 29213; ATCC 29213): 8 µM (≈ 20.6 µg/mL)
MIC, Heat (100°C) (S. aureus ATCC 29213; ATCC 29213): 32 µM (≈ 82.4 µg/mL)
MIC, KCl (S. aureus ATCC 29213; ATCC 29213): 8 µM (≈ 20.6 µg/mL)
MIC, MgCl2 (S. aureus ATCC 29213; ATCC 29213): 8 µM (≈ 20.6 µg/mL)
MIC, NH4Cl (S. aureus ATCC 29213; ATCC 29213): 8 µM (≈ 20.6 µg/mL)
MIC, NaCl (S. aureus ATCC 29213; ATCC 29213): 8 µM (≈ 20.6 µg/mL)
MIC, ZnCl2 (S. aureus ATCC 29213; ATCC 29213): 8 µM (≈ 20.6 µg/mL)
MIC, pH 4.0 (S. aureus ATCC 29213; ATCC 29213, pH 4): 8 μM
MIC, pH 6.0 (S. aureus ATCC 29213; ATCC 29213, pH 6): 8 μM
MIC, pH 8.0 (S. aureus ATCC 29213; ATCC 29213, pH 8): 8 μM
MIC, pH 10.0 (S. aureus ATCC 29213; ATCC 29213, pH 10): 8 μM
Time to kill S. aureus (S. aureus; peptide at 1 × MIC): 30 min
Time to kill S. aureus (S. aureus; peptide at 2 × MIC): 30 min
MIC (B. subtilis CMCC 63501): 16 µM (≈ 41.2 µg/mL)
MIC (S. typhimurium ATCC 7731): 8 µM (≈ 20.6 µg/mL)
MIC [1]: 8 µM (≈ 20.6 µg/mL)
MIC (S. pullorum C79-13): 8 µM (≈ 20.6 µg/mL)
Dye leakage (calcein release) [2]: more than 40%
